This note sets out measurements from patent US9844549B2, “2-aminothiazole derivative or salt thereof” (ASTELLAS PHARMA INC., priority 2014, dated 2017).

Structures can show the parent of a compound that is named as a salt.

This assay deals with anesthetized rats. Kind of assay: Effect on pelvic nerve stimulation-induced elevation of intravesical pressure in anesthetized rats. The conditions noted are these: Rattus norvegicus; 3 mg/kg intravenous; maximum effect within one hour; AUC, pre-treatment = 100%; SD female rats; read-out: Increase rate of intravesical pressure (% of pre). The assay is classed as in vivo. On the procedure:
Test Example 3: Effect on Pelvic Nerve Stimulation-Induced Elevation of Intravesical Pressure in Anesthetized Rats
The effect of the Example compounds of the present invention in the pelvic nerve electrical stimulation-induced elevation of intravesical pressure using rats as an action of nerve stimulation-dependent bladder contraction in vivo was measured by the following method. That is, SD female rats (Japan SLC, Inc.) were used and its lower abdomen was dissected at the midline under pentobarbital anesthesia (50 mg/kg ip). After ligating and cutting the ureter on both sides, a cannula (PE-50) for measuring the intravesical pressure was inserted into the bladder from the external urethral opening and fixed by a clip. After injecting about 200 μL of saline through the cannula that had been inserted into the bladder, the other side was connected to a pressure transducer to measure the intravesical pressure. Under a stereoscopic microscope observation, the pelvic nerve in the vicinity of the bladder was peeled and an electrode for nerve stimulation (unique Medical) was placed. The abdominal cavity was filled with mineral oil (MP BIOMEDICALS). After placing in a post-operative stabilization period, the pelvic nerve was subjected to electrical stimulation (stimulation voltage: 10 V, stimulation frequency: 8 Hz, pulse width: 0.3 msec, and stimulation time: 10 seconds) to elicit the elevation of intravesical pressure, using an electrical stimulator (Nihon Kohden). By repeating the electrical stimulation at an interval of 2 minutes while adjusting the voltage, the voltage was adjusted to elicit about 50% to 70% elevation of intravesical pressure elicited at 10 V. Thereafter, by repeating the electrical stimulation at an interval of 10 minutes, the increase in the intravesical pressure by electrical stimulation was stabilized three times or more, and the test substance (an administration amount of 3 mg/kg) was then administered from the catheter detained in the vein at a volume of 1 mL/kg, thus measuring an effect of the elevation of the intravesical pressure of the test substance for 1 hour. The test substance was dissolved in water supplemented with 10% DMSO and 10% Cremophor.
The response was applied to a personal computer through a PowerLab (registered trademark) and analyzed by LabChart (registered trademark). The AUC of each elevation of the intravesical pressure was calculated, the intravesical pressure elevation rate (% of pre) after the treatment with the test substance was calculated by taking an average value of the values measured three times before the treatment with the test substance as 100%, and the maximum effect during a period within one hour after administration of the compound was considered as the effect of the test substance.
For the molecule `Cc1nc(Nc2nc(-c3cc(F)cc(C(F)(F)F)c3)c(CN3CCC[C@H]3C)s2)cc(N2CCN(CCC(=O)O)[C@H](C)C2)n1` [Example 21], the response vs control in vivo at 3 mg/kg was 116%.
`Cc1nc(Nc2nc(-c3cc(F)cc(C(F)(F)F)c3)c(CN3[C@H](C)CC[C@H]3C)s2)cc(N2CCN(CCC(=O)O)CC2)n1` [Example 99]: the response vs control in vivo at 3 mg/kg came to 121%.
As for `C[C@@H]1CCCN1Cc1sc(Nc2ncnc(N3CCN(CC(=O)O)CC3)c2F)nc1-c1cc(Cl)cc(C(F)(F)F)c1` [Example 77], the response vs control in vivo at 3 mg/kg is 140%.
To `C[C@@H]1CCCCN1Cc1sc(Nc2ncnc(N3CCN(CCC(=O)O)CC3)c2F)nc1-c1cc(Cl)cc(C(F)(F)F)c1` [Example 43] belongs 177%; to `CC[C@@H]1CCCN1Cc1sc(Nc2ncnc(N3CCN(CCC(=O)O)[C@H](COC)C3)c2F)nc1-c1cc(F)cc(C(F)(F)F)c1` [Example 70], 151%; to `C[C@@H]1CCCN1Cc1sc(Nc2ncnc(N3CCN(CCC(=O)O)[C@@H](C)C3)c2F)nc1-c1cc(F)cc(C(F)(F)F)c1` [Example 31], 138%.
`C[C@@H]1CC[C@@H](C)N1Cc1sc(Nc2nccc(N3CCN(CCC(=O)O)CC3)c2F)nc1-c1cc(F)cc(C(F)(F)F)c1` [Example 100]: the response vs control in vivo at 3 mg/kg was found to be 145%.
Take `CC[C@@H]1CCCN1Cc1sc(Nc2ncnc(N3CCN(CCC(=O)O)[C@H](COC)C3)c2F)nc1-c1cc(Cl)cc(C(F)(F)F)c1` [Example 71]: the response vs control in vivo at 3 mg/kg worked out at 197%.
For the molecule `Cc1nc(Nc2nc(-c3cc(F)cc(C(F)(F)F)c3)c(CN3CCC[C@H]3C)s2)cc(N2CCN(CCC(=O)O)[C@@H](C)C2)n1` [Example 15], the response vs control in vivo at 3 mg/kg is 130%.
Take `C[C@@H]1CN(c2cc(Nc3nc(-c4cc(F)cc(C(F)(F)F)c4)c(CN4CCC[C@H]4C)s3)ncn2)CCN1CCC(=O)O` [Example 20]: the response vs control in vivo at 3 mg/kg is 118%.
In the case of `C[C@@H]1CCCN1Cc1sc(Nc2ncnc(N3CCN(CCC(=O)O)[C@@H](C)C3)c2F)nc1-c1ccc(Cl)c(C(F)(F)F)c1` [Example 35], the response vs control in vivo at 3 mg/kg is 154%.
As to `C[C@@H]1CCCN1Cc1sc(Nc2nccc(N3CCN(CCC(=O)O)CC3)c2F)nc1-c1ccc(Cl)c(C(F)(F)F)c1` [Example 2, sodium 3-(4-{2-[(4-[4-chloro-3-(trifluoromethyl)phenyl]-5-{[(2R)-2-methylpyrrolidin-1-yl]methyl}-1,3-thiazol-2-yl)amino]-3-fluoropyridin-4-yl}piperazin-1-yl)propanoate], the response vs control in vivo at 3 mg/kg came to 143%.
`COC[C@H]1CN(c2ncnc(Nc3nc(-c4ccc(Cl)c(C(F)(F)F)c4)c(CN4CCC[C@H]4C)s3)c2F)CCN1CCC(=O)O` [Example 55]: the response vs control in vivo at 3 mg/kg was 189%.
Turning to `Cc1nc(Nc2nc(-c3cc(F)cc(C(F)(F)F)c3)c(CN(C)C(C)C)s2)c(F)c(N2CCN(CCC(=O)O)CC2)n1` [Example 98], the response vs control in vivo at 3 mg/kg was 139%.
As for `CN(Cc1sc(Nc2ncnc(N3CCN(CCC(=O)O)CC3)c2F)nc1-c1cc(F)cc(C(F)(F)F)c1)CC1CC1` [Example 29], the response vs control in vivo at 3 mg/kg was 145%.
To `C[C@@H]1CCCN1Cc1sc(Nc2ncnc(N3CC[C@H](N(C)CCC(=O)O)C3)c2F)nc1-c1ccc(Cl)c(C(F)(F)F)c1` [Example 53] belongs 145%; to `C[C@@H]1CCCN1Cc1sc(Nc2ncnc(N3CCC(OCC(=O)O)CC3)c2F)nc1-c1cc(Cl)cc(C(F)(F)F)c1` [Example 67], 169%; to `C[C@@H]1CCCN1Cc1sc(Nc2ncnc(N3CCN(CCC(=O)O)C(CF)C3)c2F)nc1-c1cc(F)cc(C(F)(F)F)c1` (stereo partly shown) [Example 45], 182%.
On to `COC1(C(=O)O)CCN(c2ncnc(Nc3nc(-c4cc(F)cc(C(F)(F)F)c4)c(CN4[C@H](C)CC[C@H]4C)s3)c2F)CC1` [Example 54], for which the response vs control in vivo at 3 mg/kg worked out at 150%.
Take `C[C@@H]1CCCN1Cc1sc(Nc2nccc(N3CCN(CCC(=O)O)CC3)c2F)nc1-c1cc(F)cc(C(F)(F)F)c1` [Example 5, 3-(4-{3-fluoro-2-[(4-[3-fluoro-5-(trifluoromethyl)phenyl]-5-{[(2R)-2-methylpyrrolidin-1-yl]methyl}-1,3-thiazol-2-yl)amino]pyridin-4-yl}piperazin-1-yl)propanoic acid trihydrochloride]: the response vs control in vivo at 3 mg/kg amounted to 146%.
As for `CC[C@@H]1CCCN1Cc1sc(Nc2ncnc(N3CCN(CCC(=O)O)CC3)c2F)nc1-c1cc(Cl)cc(C(F)(F)F)c1` [Example 63], the response vs control in vivo at 3 mg/kg is 198%.
Take `CO[C@H]1CCCN(c2sc(Nc3ncnc(N4CCN(CCC(=O)O)CC4)c3F)nc2-c2ccc(Cl)c(C(F)(F)F)c2)C1` [Example 32]: the response vs control in vivo at 3 mg/kg was 232%.
As to `C[C@@H]1CC[C@@H](C)N1Cc1sc(Nc2ncnc(N3CC[C@H](N(C)CCC(=O)O)C3)c2F)nc1-c1cc(Cl)cc(C(F)(F)F)c1` [Example 65], the response vs control in vivo at 3 mg/kg is 174%.
Consider `C[C@@H]1CC[C@@H](C)N1Cc1sc(Nc2ncnc(N3CCN(CCC(=O)O)CC3)c2F)nc1-c1cc(Cl)cc(C(F)(F)F)c1` [Example 40], for which the response vs control in vivo at 3 mg/kg was found to be 212%.
For the molecule `C[C@@H]1CCCN1Cc1sc(Nc2ncnc(N3CCN(CCC(=O)O)[C@@H](CO)C3)c2F)nc1-c1cc(F)cc(C(F)(F)F)c1` [Example 86], the response vs control in vivo at 3 mg/kg turned out to be 164%.
Regarding `C[C@@H]1CCCN1Cc1sc(Nc2ncnc(N3CCN(CCC(=O)O)[C@H](CF)C3)c2F)nc1-c1cc(F)cc(C(F)(F)F)c1` [Example 58], the response vs control in vivo at 3 mg/kg was 175%.
To `C[C@@H]1CCCN1Cc1sc(Nc2ncnc(N3CCN(CCC(=O)O)CC3)c2F)nc1-c1cc(Cl)cc(OC(F)(F)F)c1` [Example 51] belongs 129%; to `Cc1nc(Nc2nc(-c3cc(F)cc(C(F)(F)F)c3)c(CN3CCC[C@H]3C)s2)cc(N2CCN(CC(=O)O)CC2)n1` [Example 16], 111%; to `CC[C@@H]1CCCN1Cc1sc(Nc2ncnc(N3CC[C@H](N(C)CCC(=O)O)C3)c2F)nc1-c1cc(Cl)cc(C(F)(F)F)c1` [Example 69], 150%.
With `Cc1nc(Nc2nc(-c3cc(F)cc(C(F)(F)F)c3)c(CN3CCC[C@H]3C)s2)cc(N2CCC(OCC(=O)O)CC2)n1` [Example 30], the response vs control in vivo at 3 mg/kg amounted to 124%.
With `C[C@@H]1CC[C@@H](C)N1Cc1sc(Nc2ncnc(N3CCC(OCC(=O)O)CC3)c2F)nc1-c1cc(Cl)cc(C(F)(F)F)c1` [Example 68], the response vs control in vivo at 3 mg/kg amounted to 172%.
Consider `COC1(C(=O)O)CCN(c2ncnc(Nc3nc(-c4cc(F)cc(C(F)(F)F)c4)c(CN4CCC[C@H]4C)s3)c2F)CC1` [Example 39], for which the response vs control in vivo at 3 mg/kg is 123%.
To `CC[C@@H]1CCCN1Cc1sc(Nc2nc(C)nc(N3CCN(CCC(=O)O)CC3)c2F)nc1-c1cc(F)cc(C(F)(F)F)c1` [Example 38] belongs 142%; to `C[C@@H]1CCCN1Cc1sc(Nc2ncnc(N3CCN(CCC(=O)O)[C@H](CF)C3)c2F)nc1-c1ccc(Cl)c(C(F)(F)F)c1` [Example 59], 225%; to `C[C@@H]1CC[C@@H](C)N1Cc1sc(Nc2ncnc(N3CCN(CCC(=O)O)CC3)c2F)nc1-c1ccc(Cl)c(C(F)(F)F)c1` [Example 36], 191%.
`C[C@@H]1CCCN1Cc1sc(Nc2cc(N3CCN(CCC(=O)O)CC3)ncn2)nc1-c1cc(Cl)cc(C(F)(F)F)c1` [Example 92]: the response vs control in vivo at 3 mg/kg is 105%.
To `C[C@@H]1CCCN1Cc1sc(Nc2ncnc(N3CC[C@H](N(C)CCC(=O)O)C3)c2F)nc1-c1cc(F)cc(C(F)(F)F)c1` [Example 34] belongs 159%; to `COC1CCN(c2sc(Nc3cc(N4CCN(CCC(=O)O)CC4)nc(C)n3)nc2-c2cc(F)cc(C(F)(F)F)c2)CC1` [Example 27], 123%.
On to `COc1c(F)cc(-c2nc(Nc3cc(N4CCN(CCC(=O)O)CC4)ncn3)sc2CN2CCC[C@H]2C)cc1C(F)(F)F` [Example 94], for which the response vs control in vivo at 3 mg/kg is 114%.
`CCN(CC)Cc1sc(Nc2nc(C)nc(N3CCN(CCC(=O)O)CC3)c2F)nc1-c1cc(F)cc(C(F)(F)F)c1` [Example 97]: the response vs control in vivo at 3 mg/kg was 143%.
